For series [1], the system named is p-Histone H3. Nature of the series: p-Histone H3 in HeLa cells. The conditions noted are these: Homo sapiens, read-out: IC50 p-Histone H3.
The test system of series [2] is p-Histone H3. Nature of the series: p-Histone H3 in Jurkat cells. The conditions noted are these: Homo sapiens, read-out: IC50 for p-Histone H3.
Series [3] relates to stage IV solid endometrial cancerous tumor. As to the kind of experiment: Human Ph I clinical trial, tumor response: endometrial tumor. The conditions noted are these: same endometrial tumor; 30 mg once daily; week 16, eight cycles; CT, RECIST 1.1.
Source text: FIGS. 31A and 31B are measurements of the same endometrial solid tumor depicted in FIGS. 30A and 30B, but with its size shown as measured alone the short axis by CT and calculated using RECIST 1.1.
Series [4] can be described thus: Relationship / interconversion between bismesylate crystalline forms. It counts as physicochemical. The source says: AMG 900 bismesylate salt crystalline From A was identified as a dihydrate; AMG 900 bismesylate salt crystalline From B was identified as a dihydrate; AMG 900 bismesylate salt crystalline From C was identified as a monohydrate; and AMG 900 bismesylate salt crystalline From D was identified as a monohydrate. […].

The nature of series [5]: Solubility of salt/crystal forms in 0.01N HCl over 24 hrs. The format is physicochemical. The following applies: slurry. The protocol: (§1) An excess of solid material was stirred at 25° C. or 55° C. for 18-24 hrs in aqueous media, excipients or solvents as noted. At the appropriate time point, an aliquot of the sample was centrifuged. The supernatant was filtered through a PTFE syringe filter and analyzed by HPLC versus a standard curve. The solid was then analyzed by XRPD for identification of the form.

A further series in a line: Dog pK study. The conditions noted are these: dogs. It counts as in vivo. The source says: To this end, a various crystalline forms of different pharmaceutically acceptable salts of AMG 900 were investigated and made.
A short description of series [6]: Solubility studies in aqueous media, excipients or solvents (18-24 hrs, HPLC; solid form by XRPD). It counts as physicochemical. The conditions noted are these: water. As for the experimental part:
as §1

One may read the IC50 as the concentration at which inhibition is half-maximal. Regarding `Cc1csc(-c2nnc(Nc3ccc(Oc4ncccc4-c4ccnc(N)n4)cc3)c3ccccc23)c1` [AMG 900, N-(4-((3-(2-amino-4-pyrimidinyl)-2-pyridinyl)oxy)phenyl)-4-(4-methyl-2-thienyl)-1-phthalazinamine], the IC50 amounted to 59 nM with p-Histone H3 [1] (1 h), 238 nM in the series on p-Histone H3 [1], 66 nM in the series on p-Histone H3 [2] (1 h) and 4 nM with p-Histone H3 [2] (24 h). In addition, the “reduction of short axis diameter” value in series [3] is recorded as “up to 40%”.
As for `Cc1csc(-c2nnc(Nc3ccc(Oc4ncccc4-c4ccnc(N)n4)cc3)c3ccccc23)c1` [N-(4-((3-(2-amino-4-pyrimidinyl)-2-pyridinyl)oxy)phenyl)-4-(4-methyl-2-thienyl)-1-phthalazinamine], in series [4], the “stability of the crystalline form” value was “unstable”. For the same compound, the “form conversion at room temperature” value in series [4] (room temperature, normal humidity) is “converts back to crystalline Form B”.
In the case of `Cc1csc(-c2nnc(Nc3ccc(Oc4ncccc4-c4ccnc(N)n4)cc3)c3ccccc23)c1` [bismesylate dihydrate form A, N-(4-((3-(2-amino-4-pyrimidinyl)-2-pyridinyl)oxy)phenyl)-4-(4-methyl-2-thienyl)-1-phthalazinamine], in series [5], the “solubility versus AMG 900 free base crystalline form A” value was “significant improvement in solubility”. For the same compound, in series [4] (room temperature in a capped vial), the “form conversion over time” value is “converts to form B”.
For the compound `Cc1csc(-c2nnc(Nc3ccc(Oc4ncccc4-c4ccnc(N)n4)cc3)c3ccccc23)c1` [bismesylate monohydrate form C, N-(4-((3-(2-amino-4-pyrimidinyl)-2-pyridinyl)oxy)phenyl)-4-(4-methyl-2-thienyl)-1-phthalazinamine], the “form conversion with an increase in humidity” value in series [4] (relative humidity at or greater than 50%) is reported as “convert to the dihydrate form B”.
Consider `Cc1csc(-c2nnc(Nc3ccc(Oc4ncccc4-c4ccnc(N)n4)cc3)c3ccccc23)c1` [free base crystalline form A of AMG 900, N-(4-((3-(2-amino-4-pyrimidinyl)-2-pyridinyl)oxy)phenyl)-4-(4-methyl-2-thienyl)-1-phthalazinamine], for which the bioavailability in dogs result in the series “Dog pK study” is “low”. The solubility in water result in series [6] is “poorly soluble”.

(Values after patent US10053452B2 (AMGEN INC., priority 2013, dated 2018).)
